Laboratory results as given in patent publication US8232240B2, “Inhibitors of enveloped virus infectivity” (priority 2005, dated 2012).
“Also recorded” adds a separate entry of the source. Where a SMILES comes first, the peptide text is derived from it. The star is where a group is joined. Cbz = O=C(OCc1ccccc1)*; CHN2 = [N-]=[N+]=C*; tBu = CC(C)(C)*

Assays:
[1] = target: T1, CatL (Chlorocebus aethiops, UniProt Q9GKL8); format: cell-based
T1 construct: CatB and Cathepsin L (CatL) enzymatic activities in CA074-treated cells; endogenous in cells; host or cells: Vero cells

[2] = tested on: cell-cell fusion mediated by Nipah virus glycoproteins F and G; format: cell-based; settings: 24 hours
[3] = tested on: VSV G; format: cell-based, vesicular stomatitis virus (VSV)
[4] = tested on: EboV Zaire GP; format: cell-based
[5] = tested on: Cote d'Ivoire GPΔMuc; format: cell-based, Ebola Cote d'Ivoire
[6] = tested on: CatB; format: cell-based
[7] = tested on: Reston GPΔMuc; format: cell-based, Ebola Reston
[8] = tested on: Sudan GPΔMuc; format: cell-based, Ebola Sudan
[9] = tested on: Marburg-GP; format: cell-based, Marburg virus
[10] = tested on: Marburg (Musoke strain) virus; format: cell-based
[11] = tested on: EboV-Zaire (1995 strain); format: cell-based

T1 sequence (Q9GKL8 114-333): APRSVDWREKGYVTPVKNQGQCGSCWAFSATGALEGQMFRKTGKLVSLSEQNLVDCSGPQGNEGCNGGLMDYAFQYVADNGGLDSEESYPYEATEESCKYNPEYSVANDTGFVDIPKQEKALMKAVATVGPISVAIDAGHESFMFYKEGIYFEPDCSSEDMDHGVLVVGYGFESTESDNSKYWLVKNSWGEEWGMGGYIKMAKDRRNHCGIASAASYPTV

| Compound | approximate level of cellular CatL activity (L %) [1] | inhibition of CatL activity [1] | cell-cell fusion by Nipah virus glycoproteins (syncytia) [2] | VSV G-dependent infection [3] | EboV GP-dependent infection of Vero cells [4] | infection, Zaire [4] | infection, Cote d'Ivoire [5] | approximate level of cellular CatB activity (B %) [6] | inhibition of CatB activity [6] | infection, Reston [7] | infection, Sudan [8] | infection, Marburg [9] | inhibition of growth of Marburg virus on Vero cells [10] | block of infection, Ebola Zaire [4] | reduction of infection in the absence of detectable CatB activity [4] | block of infection, Cote d'Ivoire [5] | infectivity of Reston [7] | inhibition of infection, Sudan [8] | infectivity of Marburg [9] | expression of cell-associated GP1 [11] |
| --- | --- | --- | --- | --- | --- | --- | --- | --- | --- | --- | --- | --- | --- | --- | --- | --- | --- | --- | --- | --- |
| CC(C)(C)Oc1ccc(C[C@H](NC(=O)[C@H](Cc2ccccc2)NC(=O)OCc2ccccc2)C(=O)C=[N+]=[N-])cc1 [FYdmk, Z-Phe-Tyr-(tBu)-diazomethylketone] (Cbz-Phe-Tyr(tBu)-CHN2) | ~0% | can inhibit | dramatically reduces cell-cell fusion; also recorded: inhibits cell-cell fusion | Neither compound inhibited | inhibited infection | blocked | blocked | ~10% | can inhibit | blocked | blocked | blocked | not each alone |  |  |  |  |  |  |  |
| CCCNC(=O)[C@H]1O[C@@H]1C(=O)N[C@H](C(=O)N1CCC[C@H]1C(=O)O)[C@@H](C)CC [CA074] | ~100% |  |  | Neither compound inhibited | inhibited infection |  |  | ~10% |  |  |  |  | not each alone | ~99% | ~99.9% | ~99% | unaffected | 90% | unaffected | markedly reduced |
